Test results: patent US12084523B2, “Ubiquitin high affinity cyclic peptides and methods of use thereof” (TECHNION RESEARCH & DEVELOPMENT FOUNDATION LIMITED, priority 2018, dated 2024)

Experiments:
HeLa cells [1] = assay: Annexin V-FITC FACS apoptosis analysis; format: cell-based, human; conditions: 10 μM, 24 h and 48 h
Protocol: Fluorescence-Activated Cell Sorting (FACS) Analysis
Induction of apoptosis in Hela cells by treatment with cyclic peptides were determined after 24 and 48 hours incubation in a dose dependent manner, using annexin V-FITC apoptosis detection kit (BD Biosciences) according to the manufacturer s protocol. Two (2)×10^5 cells/well were seeded in 6-well plates and treated with an inhibitor for 24/48 hours in a dose dependent manner. The increase in fluorescence, which indicates the apoptosis level in the treated cells, were monitored using flow cytometry and compared to untreated cells containing DMSO as a negative control and MG132 as a positive control.
Given that Ub4ix has a pronounced inhibitory effect on the UPS system, the inventors further wanted to examine whether it inhibit cell growth and induce apoptosis in cancer cells. […] The effects of the cyclic peptides on apoptosis were evaluated using FACS analysis.

[2] = test system: cellular protein breakdown in HeLa cells; assay: Radioactive pulse and chase, degradation-inhibition assay; format: cell-based, human; conditions: 4 h chase, vs non-treated or DMSO
Protocol: Radioactive Pulse and Chase
For degradation-inhibition assays, cells were labeled with ^35S-methionine and cysteine (20 μCi) for 16 hours, followed by a chase in cold medium for 4 hours, in the presence of DMSO, proteasome inhibitor MG132, or Ub4ix. Media were then collected, and amino acids were extracted using TCA precipitation. Radioactive readings were measured using a scintillation counter.
In order to directly measure the effect of Ub4ix on proteolysis, the inventors employed radiolabeling of cellular proteins, followed by a chase experiment in the presence of either Ub4ix or the proteasome inhibitor MG132. […] The inventors validated this inhibitory effect on protein breakdown with known proteasomal substrates, the proteins p53, and p27, bona fide substrates of the UPS.

26S proteasome = assay: In vitro proteasome degradation assay of HA-α-globin-K48-linked tetra-Ub; format: biochemical; conditions: 5.3 μM peptide
HeLa cells [3] = format: cell-based, human; conditions: MTT
Protocol: Cell Viability Assays and Kinetic Experiments In order to assess the effect of the cyclic peptides on Hela cells, toxicity was determined using the MTT assay. Equal amounts of cells (8,000 cells/well) were plated in 96-well plates in triplicate. After 24 hours, attached cells were exposed to increasing concentrations of the cyclic peptides for another 24 hours. […] Optical density was recorded at 590 nm with a reference measurement at 630 nm.

[4] = test system: Ub-conjugates in HeLa cells; assay: Western blot of cellular Ub-conjugates; format: cell-based, human
Protocol: (§1) FIGS. 5A-5F are images and graphs showing the uptake of Ub4ix by living cells and its cellular effect. (5A) is an image of the structure of fluorescein-5-maleimide-Ub4ix. (5B) is micrographs of HeLa cells incubated in the presence of DMSO (Negative control) or fluorescein-5-maleimide-Ub4ix cyclic peptide (20 μM). Internalization of the peptide into the cells was monitored at the indicated time points. Ub4ix induced the accumulation of Ub-conjugates, as a result of proteolysis inhibition. (5C) is an image of a western blot analysis of ubiquitinated proteins from HeLa cells which were incubated in the presence of Ub4ix, fluorescein-5-maleimide-Ub4ix, or MG132 for the indicated time-periods. Cells were lysed, resolved using SDS-PAGE, proteins were transferred to a nitrocellulose membrane, and the membrane was blotted using an antibody against Ub-conjugates (Ub conj), and Actin. (5D) is a graph of radio-labeled proteins from HeLa cells which were labeled with radioactive S-Met and S-Cys and were then chased for 4 hours in “cold” media. Cells were either non-treated (Control), or incubated in the presence of DMSO, Ub4ix, or MG132, at the indicated concentrations. Radioactivity levels, resulting from protein breakdown during the chase phase, were measured using a scintillation counter. […]

USP2 [5] = assay: In vitro deubiquitination assay, USP2 with K48-linked di-Ub; format: biochemical; conditions: di-Ub as the substrate
Protocol: (§2) In Vitro Deubiquitination Assay
(§3) In vitro deubiquitination reactions were performed in a Tris buffer (50 mM TRIS, 1 mM TCEP, pH 7.7), containing 2 μM ^K48Ub2/4, then the specific DUB (50 mM Tris, 0.5 mM EDTA, 1 mM TCEP and 0.5 mg/ml ovalbumin, pH 7.5) was added. The reaction mixtures were incubated at 37° C. and at the indicated time points the reactions were stopped by taking aliquots and mixed them with 3× sample buffer and boiling. The same amounts were loaded on 14% SDS-PAGE, electro-blotted to nitrocellulose membrane and probed with an anti-Ub antibody. Bands were quantified with Image Quant LAS 4000 (GE Healthcare).
(§4) The inventors further chose to examine the effect of these cyclic peptides on two DUBs: OTUB1, a K48-linkage chain specific DUB, and USP2, which cleaves most Ub chains without specificity, using K48-linked di- and tetra-Ub chains as substrates.

^K48Ub4 = biological target: T1, ^K48Ub4 (Homo sapiens, UniProt P0CG47); assay: SPR binding of cyclic peptides to K48-linked tetra-ubiquitin; conditions: SPR, target ^K48Ub4
T1 construct: solid phase peptide synthesis of Ub monomers (modified as required); made in house
Protocol: Surface Plasmon Resonance (SPR)
The interactions between cyclic peptides: U2i, U2ii, U4i, U4ix and Ub1, ^K48Ub2 and ^K48Ub4, were determined using BIACORE T100 instrument (GE healthcare) equipped with a biotin CAPture kit Series S chip. The buffer in all experiments contained 50 mM HEPES, pH 7.3, 150 mM NaCl, 0.05% Tween20, 2 mM DTT with 0.2% DMSO. Biotinylated Ub1, ^K48Ub2 and ^K48Ub4 were loaded to approximately equal molar amounts on the SPR chip, and various concentrations of cyclic peptides were flowed over at […] for 120 sec, before initiation of dissociation by flowing buffer over at […] for further 700 sec. Traces were fit to the simplest, two-state model for binding. Association was fit to a single exponential assuming pseudo-first order conditions, whereas the dissociation trace was fit to single exponential plus a drift term. Finally, due to the poor quality of the traces for U4ix binding ^K48Ub2, the amplitude of the association kinetic trace at different concentrations of peptide was fit to estimate the lower bound for KD.
Each peptide was flowed over Ub1, ^K48Ub2 and […] immobilized on SPR chips. There was no detectable binding to Ub1 for any of the peptides, as expected, as Ub1 binding was explicitly selected against during the RaPID protocol. […] However, Ub2i and Ub2ii also strongly bound ^K48Ub4, with a low apparent KD and an increased SPR response (FIG. 1E). This was consistent with a higher stoichiometry of binding to the tetramer, which could be explained by additional binding sites in ^K48Ub4. Indeed, the ^K48Ub2 structure can be superimposed twice on the ^K48Ub4 crystal structure (FIG. 10). […] However, similar to Ub2i and Ub2ii, Ub4i also bound ^K48Ub2. This was perhaps unsurprising, given the high sequence identity between Ub4i and Ub2i.

[6] = test system: p53 and p27 in HeLa cells; assay: Western blot of proteasomal substrates p53 and p27; format: cell-based, human
Protocol: as §1

[7] = test system: protein synthesis in HeLa cells; assay: Radioactive pulse assay of protein synthesis; format: cell-based, human; conditions: 35S-Met/Cys incorporation
Protocol: HeLa cells were incubated with either DMSO, ribosomal inhibitor cycloheximide (CHX), or Ub4ix. After 4 hours, media were replaced with media containing radioactive Methionine and Cysteine, and cells where pulsed for 4 hours. Cells were thoroughly washed, proteins were extracted from the cells, and the radioactive readings of each sample were measured using a scintillation counter, indicating the extent of incorporation of radiolabeled Methionine and Cysteine into newly synthesized proteins.
For the assay of inhibitions of protein synthesis, cells were incubated with DMSO, ribosomal inhibitor cycloheximide (CHX), or Ub4ix. After 4 hours, media were replaced with medium containing ^35S-methionine and cysteine (20 μCi) and cells where pulsed for 4 hours. Plates were extensively washed with ice-cold PBS and proteins were extracted from cells using trichloroacetic acid (TCA) precipitation. The radioactive readings were measured using a scintillation counter.

USP2 [8] = assay: In vitro deubiquitination assay, USP2 with K48-linked tetra-Ub; format: biochemical; conditions: tetra-Ub chain, after removal of the distal Ub (tri-Ub)
Protocol: as §2, §3, §4

CC[C@H](C)[C@@H]1NC(=O)[C@H](Cc2c[nH]c3ccccc23)NC(=O)[C@H](Cc2c[nH]c3ccccc23)NC(=O)[C@H](CC(=O)O)NC(=O)CNC(=O)[C@H](CO)NC(=O)[C@H](CC(=O)O)NC(=O)[C@H](CC(=O)O)NC(=O)[C@H](CC(C)C)NC(=O)[C@H](Cc2ccc(O)cc2)NC(=O)[C@H](CC(C)C)NC(=O)[C@@H](Cc2c[nH]c3ccccc23)NC(=O)CSC[C@@H](C(=O)NCC(N)=O)NC1=O [Ub4ix]
apoptosis (HeLa cells [1]): clear increase in apoptosis
protein breakdown [2]: markedly reduced
inhibition of proteasomal degradation of α-globin-K48-linked tetra-Ub (26S proteasome): clear inhibition
suppression of cell growth (HeLa cells [3]): most effective
cellular level of Ub-conjugates [4]: elevation in Ub-conjugates
inhibition of USP2 (USP2 [5]): minimal inhibition
koff (^K48Ub4): 0.021 s⁻¹
kon (^K48Ub4): 3.52e+06 M⁻¹ s⁻¹
p53 and p27 levels [6]: accumulated over time
effect on protein synthesis [7]: does not interfere with protein synthesis
inhibition of USP2 (USP2 [8]): strong inhibition
